Data on eight compounds can be found in publication PMC9490060, “Synthesis and evaluation of anticancer activity of quillaic acid derivatives: A cell cycle arrest and apoptosis inducer through NF-κB and MAPK pathways” (Frontiers in Chemistry, 2022).

Data set [1] has as its system HCT116 (human colorectal cancer cell line). The experiment in a line: MTT anti-proliferative assay, HCT116. The format is cell-based. To be noted: means ± SD, n = 3; for IC50: Homo sapiens, HCT-116, 48 h incubation. An excerpt:
(§1) The anti-proliferative activities against five human cancer cell lines, including HCT116 (human colorectal cancer cell line), MCF-7 (human breast cancer cell line), SW620 (human colorectal cancer cell line), BEL7402 (human hepatocellular carcinoma cell line), and HepG2 (human hepatocellular carcinoma cell line) were established for all the target compounds using the MTT assay.
(§2) The propidium iodide (PI) and Annexin V-FITC apoptosis detection kit were purchased from Invitrogen (Eugene, OR, United States). 3-(4,5-Dimethylthiazol-2-yl)-2,5-diphenyl-2H-tetrazolium bromide (MTT) was purchased from Sigma-Aldrich Co. (St. Louis, MO, United States). All human cell lines were used in this study, colorectal cancer cell HCT116, colorectal cancer cell SW620, breast cancer cell MCF-7, liver hepatocellular carcinoma cell BEL7402, liver hepatocellular carcinoma HepG2 and normal liver cell L02 were initially purchased from American Type Culture Collection (ATCC, Manassas, VA, United States). RPMI-1640 media, Dulbecco’s modified Eagle’s medium (DMEM), and foetal bovine serum (FBS) were provided from Gibco Company (Grand Island, NY, United States). Cell line MCF-7 and HepG2 were cultivated in DMEM containing 10% (v/v) heat-inactivated FBS, 100 units/ml penicillin and […] streptomycin (Grand Island, NY, United States). Cell lines HCT116, BEL7402, SW620, and L02 were cultivated in RPMI 1640 medium containing 10% (v/v) heat-inactivated FBS, 100 units/ml penicillin, and […] streptomycin. The cells were incubated at 37°C under a 5% CO2 and 90% relative humidity (RH) atmosphere.
(§3) Stock solutions were prepared by diluting target compounds in DMSO at concentrations (1.25, 2.5, 5, and 10 mM). The stock solution was then diluted (1.25, 2.5, 5, and 10 μM) with culture medium, and the concentration of DMSO was controlled not to exceed 0.1%.
(§4) Place the cells in a 96-well plate at an appropriate density to ensure exponential growth (1 × 10^4–1.2×10^4 cells per well) throughout the experiment, and then allow the cells to adhere for 24 h. The cells were then treated with continuous concentrations of each compound (1.25, 2.5, 5, and 10 μM) for 48 h. After 48 h of incubation, 15 μl of MTT solution was added to each well, and the final concentration was 2 mg/ml. Then incubate for another 4 h. After incubation, remove the MTT solution and add […] of DMSO to each well for staining. Shake vigorously for 10 min at room temperature to ensure complete dissolution. The optical density (OD) was read on a microplate reader (ELx 800, BioTek, Highland Park, Winooski, VT, United States) with a wavelength of 492 nm, and then the data was analyzed.

The subject of data set [2] is SW620 (human colorectal cancer cell line). The data set can be described thus: MTT anti-proliferative assay, SW620. In kind it is cell-based. To be noted: means ± SD, n = 3; for IC50: Homo sapiens, SW-620, 48 h incubation.
Excerpt: as §1, §2, §3, §4

Data set [3] has as its system HepG2 (human hepatocellular carcinoma cell line). The experiment in a line: MTT anti-proliferative assay, HepG2. The format is cell-based. To be noted: means ± SD, n = 3; for IC50: Homo sapiens, HepG2, 48 h incubation.
Excerpt: as §1, §2, §3, §4

For data set [4], the system named is MCF-7 (human breast cancer cell line). The data set can be described thus: MTT anti-proliferative assay, MCF-7. The format is cell-based. As to conditions: means ± SD, n = 3; for IC50: Homo sapiens, MCF7, 48 h incubation.
Excerpt: as §1, §2, §3, §4
A general note: Formazan colour is commonly taken as a measure of viable cells.

In data set [5] the test system is BEL7402 (human hepatocellular carcinoma cell line). The data set can be described thus: MTT anti-proliferative assay, BEL7402. The format is cell-based. To be noted: means ± SD, n = 3; for IC50: Homo sapiens, Bel-7402, 48 h incubation.
Excerpt: as §1, §2, §3, §4

As a reminder, the melting point is the temperature, or range, at which the solid turns liquid. Broadly, the IC50 is the point on the concentration scale where inhibition reaches its midpoint. Lower therefore signals greater potency. On to `COc1cc(-c2nnc(COC(=O)[C@]34CCC(C)(C)C[C@H]3C3=CC[C@@H]5[C@@]6(C)CC[C@H](O)[C@@](C)(C=O)[C@@H]6CC[C@@]5(C)[C@]3(C)C[C@H]4O)o2)cc(OC)c1OC` [Compound B5, (5-(3,4,5-trimethoxyphenyl)-1,3,4-oxadiazol-2-yl)methyl (4aR,5R,6aS,6bR,8aR,9S,10S,12aR,12bR,14bS)-9-formyl-5,10-dihydroxy-2,2,6a,6b,9,12a-hexamethyl-1,3,4,5,6,6a,6b,7,8,8a,9,10,11,12,12a,12b,13,14b-octadecahydropicene-4a (2H)-carboxylate], for which the melting point lay within 136 to 138 °C. The same compound came in with a half-inhibitory concentration (IC50) in data set [1] of 3.81 ± 1.23 µM. Besides, in data set [2], the concentration for half-maximal inhibition (IC50) was > 10 µM. In data set [3], this compound had an IC50 of 8.45 ± 2.15 µM. Also, the IC50 in data set [4] is > 10 µM. In data set [5], this compound returned an IC50 of 7.36 ± 1.45 µM.

In turn, `CC1(C)CC[C@]2(C(=O)OCc3nnc(-c4ccc([N+](=O)[O-])cc4)o3)[C@H](O)C[C@]3(C)C(=CC[C@@H]4[C@@]5(C)CC[C@H](O)[C@@](C)(C=O)[C@@H]5CC[C@]43C)[C@@H]2C1` [Compound B6, (5-(4-nitrophenyl)-1,3,4-oxadiazol-2-yl)methyl (4aR,5R,6aS,6bR,8aR,9S,10S,12aR,12bR,14bS)-9-formyl-5,10-dihydroxy-2,2,6a,6b,9,12a-hexamethyl-1,3,4,5,6,6a,6b,7,8,8a,9,10,11,12,12a,12b,13,14b-octadecahydropicene-4a (2H)-carboxylate] returned a melting point of 140 to 142 °C. The compound further showed a concentration for half-maximal inhibition (IC50) in data set [1] of 3.65 ± 1.22 µM. In addition, the IC50 in data set [2] is > 10 µM. Further, in data set [3], the IC50 was > 10 µM. For the same compound, the IC50 in data set [4] was > 10 µM. Besides, the IC50 in data set [5] is > 10 µM.

As for `CC1(C)CC[C@]2(C(=O)OCCn3ncn(-c4ccccc4)c3=O)[C@H](O)C[C@]3(C)C(=CC[C@@H]4[C@@]5(C)CC[C@H](O)[C@@](C)(C=O)[C@@H]5CC[C@]43C)[C@@H]2C1` [Compound C1, 2-(5-oxo-4-phenyl-4,5-dihydro-1H-1,2,4-triazol-1-yl)ethyl (4aR,5R,6aS,6bR,8aR,9S,10S,12aR,12bR,14bS)-9-formyl-5,10-dihydroxy-2,2,6a,6b,9,12a-hexamethyl-1,3,4,5,6,6a,6b,7,8,8a,9,10,11,12,12a,12b,13,14b-octadecahydropicene-4a (2H)-carboxylate], the melting point is 174 to 176 °C. In data set [1], the IC50 was 4.43 ± 1.34 µM. In addition, the IC50 in data set [2] was 6.12 ± 1.56 µM. For the same compound, the IC50 in data set [3] was > 10 µM. Moreover, the 50% inhibitory concentration (IC50) in data set [4] is > 10 µM. The IC50 in data set [5] is > 10 µM.

On to `CC1(C)CC[C@]2(C(=O)OCCn3ncn(-c4ccc(F)cc4)c3=O)[C@H](O)C[C@]3(C)C(=CC[C@@H]4[C@@]5(C)CC[C@H](O)[C@@](C)(C=O)[C@@H]5CC[C@]43C)[C@@H]2C1` [Compound C2, 2-(4-(4-fluorophenyl)-5-oxo-4,5-dihydro-1H-1,2,4-triazol-1-yl)ethyl (4aR,5R,6aS,6bR,8aR,9S,10S,12aR,12bR,14bS)-9-formyl-5,10-dihydroxy-2,2,6a,6b,9,12a-hexamethyl-1,3,4,5,6,6a,6b,7,8,8a,9,10,11,12,12a,12b,13,14b-octadecahydropicene-4a (2H)-carboxylate], for which the melting point fell in the range of 176 to 178 °C. The half-maximal inhibitory concentration (IC50) in data set [1] is > 10 µM. Besides, the IC50 in data set [2] is > 10 µM. Also, the concentration for half-maximal inhibition (IC50) in data set [3] was > 10 µM. Besides, the half-maximal inhibitory concentration (IC50) in data set [4] was > 10 µM. The IC50 in data set [5] is > 10 µM.

Consider `CC1(C)CC[C@]2(C(=O)OCCn3ncn(-c4ccc(Cl)cc4)c3=O)[C@H](O)C[C@]3(C)C(=CC[C@@H]4[C@@]5(C)CC[C@H](O)[C@@](C)(C=O)[C@@H]5CC[C@]43C)[C@@H]2C1` [Compound C3, 2-(4-(4-chlorophenyl)-5-oxo-4,5-dihydro-1H-1,2,4-triazol-1-yl)ethyl (4aR,5R,6aS,6bR,8aR,9S,10S,12aR,12bR,14bS)-9-formyl-5,10-dihydroxy-2,2,6a,6b,9,12a-hexamethyl-1,3,4,5,6,6a,6b,7,8,8a,9,10,11,12,12a,12b,13,14b-octadecahydropicene-4a (2H)-carboxylate], for which the melting point lay in the range of 166 to 168 °C. Further, it took 3.11 ± 1.02 µM to reach half-maximal inhibition in data set [1] (IC50). In data set [2], half-maximal inhibition (IC50) required 7.11 ± 1.54 µM. The IC50 in data set [3] is > 10 µM. Besides, the IC50 in data set [4] was > 10 µM. For the same compound, the IC50 in data set [5] is > 10 µM.

In the case of `CC1(C)CC[C@]2(C(=O)OCCn3ncn(-c4ccc(Cl)c(Cl)c4)c3=O)[C@H](O)C[C@]3(C)C(=CC[C@@H]4[C@@]5(C)CC[C@H](O)[C@@](C)(C=O)[C@@H]5CC[C@]43C)[C@@H]2C1` [Compound C4, 2-(4-(3,4-dichlorophenyl)-5-oxo-4,5-dihydro-1H-1,2,4-triazol-1-yl)ethyl (4aR,5R,6aS,6bR,8aR,9S,10S,12aR,12bR,14bS)-9-formyl-5,10-dihydroxy-2,2,6a,6b,9,12a-hexamethyl-1,3,4,5,6,6a,6b,7,8,8a,9,10,11,12,12a,12b,13,14b-octadecahydropicene-4a (2H)-carboxylate], the melting point lay within 187 to 189 °C. Moreover, the half-inhibitory concentration (IC50) in data set [1] is > 10 µM. In addition, in data set [2], the IC50 was > 10 µM. The IC50 in data set [3] was > 10 µM. Moreover, the IC50 in data set [4] is > 10 µM. Further, the concentration for half-maximal inhibition (IC50) in data set [5] is > 10 µM.

Consider `COc1ccc(-n2cnn(CCOC(=O)[C@]34CCC(C)(C)C[C@H]3C3=CC[C@@H]5[C@@]6(C)CC[C@H](O)[C@@](C)(C=O)[C@@H]6CC[C@@]5(C)[C@]3(C)C[C@H]4O)c2=O)cc1` [Compound C5, 2-(4-(4-methoxyphenyl)-5-oxo-4,5-dihydro-1H-1,2,4-triazol-1-yl)ethyl (4aR,5R,6aS,6bR,8aR,9S,10S,12aR,12bR,14bS)-9-formyl-5,10-dihydroxy-2,2,6a,6b,9,12a-hexamethyl-1,3,4,5,6,6a,6b,7,8,8a,9,10,11,12,12a,12b,13,14b-octadecahydropicene-4a (2H)-carboxylate], for which the melting point is 186 to 188 °C. The IC50 in data set [1] worked out at 3.21 ± 1.07 µM. The same compound came in with a 50% inhibitory concentration (IC50) in data set [2] of 7.25 ± 1.72 µM. Further, the half-inhibitory concentration (IC50) in data set [3] was > 10 µM. For the same compound, the half-inhibitory concentration (IC50) in data set [4] is > 10 µM. Also, the IC50 in data set [5] was > 10 µM.

Consider `CC1(C)CC[C@]2(C(=O)OCc3cc(-c4ccccc4)no3)[C@H](O)C[C@]3(C)C(=CC[C@@H]4[C@@]5(C)CC[C@H](O)[C@@](C)(C=O)[C@@H]5CC[C@]43C)[C@@H]2C1` [D, (3-phenylisoxazol-5-yl)methyl (4aR,5R,6aS,6bR,8aR,9S,10S,12aR,12bR,14bS)-9-formyl-5,10-dihydroxy-2,2,6a,6b,9,12a-hexamethyl-1,3,4,5,6,6a,6b,7,8,8a,9,10,11,12,12a,12b,13,14b-octadecahydropicene-4a (2H)-carboxylate], for which the melting point lay in the range of 176 to 178 °C. Moreover, the “IC50 values HCT116” value in data set [1] (48 h incubation) is “no strong activity”. The IC50 in data set [1] is > 10 µM. Moreover, the “IC50 values SW620” value in data set [2] (48 h incubation) is recorded as “no strong activity”. Also, the IC50 in data set [2] is > 10 µM. In data set [3] (48 h incubation), the “IC50 values HepG2” value was “no strong activity”. The IC50 in data set [3] is > 10 µM. In addition, in data set [4] (48 h incubation), the “IC50 values MCF-7” value is “no strong activity”. Moreover, the concentration for half-maximal inhibition (IC50) in data set [4] was > 10 µM. For the same compound, the “IC50 values BEL7402” value in data set [5] (48 h incubation) was “no strong activity”. Moreover, the IC50 in data set [5] is > 10 µM.
